Laboratory results: ChEMBL document CHEMBL4483862, “Open-source discovery of chemical leads for next-generation chemoprotective antimalarials” (2018)

System: Plasmodium berghei
Test: Luciferase/luciferin-expressing antifolate-resistant parasites were used to infect a culture of HepG2 cells that were pre-incubated with compounds. Infected hepatocytes emit light due to the luciferase reaction. Assay results are presented as the percent inhibition of light emission compared to control. […]
Assay type: functional
Conditions: sporozoite; for IC90: read-out: LUCIFERASE INFECTION ASSAY - IC90

SMILES	IC90	also measured
CC(=O)Nc1cccc(-c2ccnc3c2CC(C)(C(=O)NCc2cccc(Cl)c2)O3)c1 (stereo unspecified)	> 7.57 µM	IC50 (FFLUC_HILL_SLOPE 12.6, FFLUC_R_SQUARED 0.486, HEPG2TOX_HILL_SLOPE 12, HEPG2TOX_R_SQUARED 0.561, PBLUC_HILL_SLOPE 2.25, PBLUC_R_SQUARED 0.29, read-out: LUCIFERASE INFECTION ASSAY - IC50): 4.2 µM
CC(C)(C)c1cc(C(=O)NNC(=S)Nc2ccccc2)n(Cc2ccc(Cl)cc2Cl)n1	4.51 µM	IC50 (FFLUC_HILL_SLOPE 12.6, FFLUC_R_SQUARED 0.389, HEPG2TOX_HILL_SLOPE 2.18, HEPG2TOX_R_SQUARED 0.945, PBLUC_HILL_SLOPE 8.72, PBLUC_R_SQUARED 0.517, read-out: LUCIFERASE INFECTION ASSAY - IC50): 3.51 µM
COc1cccc(N2C(C)=CC(=C(C#N)c3nc4ccccc4s3)C=C2C)c1	> 10 µM	IC50 (FFLUC_HILL_SLOPE 12.5, FFLUC_R_SQUARED 0.607, HEPG2TOX_HILL_SLOPE 3.97, HEPG2TOX_R_SQUARED 0.941, PBLUC_HILL_SLOPE 8.86, PBLUC_R_SQUARED 0.0114, read-out: LUCIFERASE INFECTION ASSAY - IC50): > 10 µM
CC(C(=O)Nc1ccc(S(=O)(=O)N2CCCC2)cc1)N1CCC(CCc2ccc(O)cc2)CC1 (stereo unspecified)	> 10 µM	IC50 (FFLUC_HILL_SLOPE 12.4, FFLUC_R_SQUARED 0.343, PBLUC_HILL_SLOPE 0.669, PBLUC_R_SQUARED 0.407, read-out: LUCIFERASE INFECTION ASSAY - IC50): > 10 µM
CC1CCN(/C(=N/S(=O)(=O)c2ccc(-n3nc(C(F)(F)F)cc3-c3cccs3)cc2)N/N=C/c2ccc(Cl)cc2)CC1	> 5.2 µM	IC50 (FFLUC_HILL_SLOPE 12.3, FFLUC_R_SQUARED 0.48, read-out: LUCIFERASE INFECTION ASSAY - IC50): > 5.2 µM
COc1ccccc1-c1cc2c(Nc3ccc(OC(F)(F)F)cc3)nccc2n1C	8.42 µM	IC50 (FFLUC_HILL_SLOPE 12.5, FFLUC_R_SQUARED 0.343, HEPG2TOX_HILL_SLOPE 2.16, HEPG2TOX_R_SQUARED 0.708, PBLUC_HILL_SLOPE 2.92, PBLUC_R_SQUARED 0.46, read-out: LUCIFERASE INFECTION ASSAY - IC50): 3.97 µM
O=c1c2ccccc2c(=O)c2oc3cc4oc5c(=O)c6ccccc6c(=O)c5[nH]c4cc3[nH]c12	4 µM	IC50 (FFLUC_HILL_SLOPE 12.7, FFLUC_R_SQUARED 0.208, HEPG2TOX_HILL_SLOPE 4.53, HEPG2TOX_R_SQUARED 0.902, PBLUC_HILL_SLOPE 7.46, PBLUC_R_SQUARED 0.34, read-out: LUCIFERASE INFECTION ASSAY - IC50): 2.98 µM
CC1CC(C)CN(Cc2nc(=O)c3c(-c4ccc(Cl)cc4)csc3[nH]2)C1 (stereo unspecified)	6.66 µM	IC50 (FFLUC_HILL_SLOPE 12.3, FFLUC_R_SQUARED 0.735, PBLUC_HILL_SLOPE 4.47, PBLUC_R_SQUARED 0.339, read-out: LUCIFERASE INFECTION ASSAY - IC50): 4.07 µM
Cc1ccc(C)c(-n2cc(-c3ccc(Cl)cc3)nc2SCC(=O)c2ccc(Cl)c(Cl)c2)c1	> 10 µM	IC50 (FFLUC_HILL_SLOPE 12.4, FFLUC_R_SQUARED 0.889, HEPG2TOX_HILL_SLOPE 8.6, HEPG2TOX_R_SQUARED 0.032, read-out: LUCIFERASE INFECTION ASSAY - IC50): > 10 µM
Fc1ccc(CNc2ccc3ncc(Br)n3n2)cc1	> 10.3 µM	IC50 (FFLUC_HILL_SLOPE 12.6, FFLUC_R_SQUARED 0.212, PBLUC_HILL_SLOPE 1.62, PBLUC_R_SQUARED 0.732, read-out: LUCIFERASE INFECTION ASSAY - IC50): 5.26 µM
CCCn1nc(C(=O)Nc2ccccc2Cc2ccccc2)c2ccccc2c1=O	> 10 µM	IC50 (FFLUC_HILL_SLOPE 12.7, FFLUC_R_SQUARED 0.0456, HEPG2TOX_HILL_SLOPE 0.0305, HEPG2TOX_R_SQUARED 0.0383, read-out: LUCIFERASE INFECTION ASSAY - IC50): > 10 µM
O=C(c1cc(C(=O)N2CCCC2)c2nc3scc(-c4ccccc4)c3c(=O)n2c1)c1cc(F)ccc1O	> 10 µM	IC50 (FFLUC_HILL_SLOPE 12.4, FFLUC_R_SQUARED 0.51, HEPG2TOX_HILL_SLOPE 7.25, HEPG2TOX_R_SQUARED 0.253, PBLUC_HILL_SLOPE 65.5, PBLUC_R_SQUARED 0.659, read-out: LUCIFERASE INFECTION ASSAY - IC50): 9.78 µM
CCc1cccc(CC)c1N1C(=O)C=CC1=O	5.85 µM	IC50 (FFLUC_HILL_SLOPE 12.6, FFLUC_R_SQUARED 0.68, HEPG2TOX_HILL_SLOPE 16.7, HEPG2TOX_R_SQUARED 0.936, PBLUC_HILL_SLOPE 11.7, PBLUC_R_SQUARED 0.538, read-out: LUCIFERASE INFECTION ASSAY - IC50): 4.85 µM
CCCCNC(=O)c1c(NC(=O)C(CC)c2ccccc2)nc2ccc(C)cn12 (stereo unspecified)	> 8.41 µM	IC50 (FFLUC_HILL_SLOPE 12.5, FFLUC_R_SQUARED 0.645, PBLUC_HILL_SLOPE 0.242, PBLUC_R_SQUARED 0.0523, read-out: LUCIFERASE INFECTION ASSAY - IC50): > 8.41 µM
O=C1C(=Nc2ccc(O)cc2)C=C(NS(=O)(=O)c2cccs2)c2ccccc21	3.54 µM	IC50 (FFLUC_HILL_SLOPE 12.7, FFLUC_R_SQUARED 0.111, HEPG2TOX_HILL_SLOPE 2.05, HEPG2TOX_R_SQUARED 0.969, PBLUC_HILL_SLOPE 9.12, PBLUC_R_SQUARED 0.459, read-out: LUCIFERASE INFECTION ASSAY - IC50): 2.78 µM
Cc1ccc(-n2c(SCC(=O)N3CCC(C)Sc4ccccc43)nnc2-c2ccccc2)cc1C (stereo unspecified)	> 10 µM	IC50 (FFLUC_HILL_SLOPE 12.3, FFLUC_R_SQUARED 0.54, HEPG2TOX_HILL_SLOPE 7.7, HEPG2TOX_R_SQUARED 0.421, PBLUC_HILL_SLOPE 3.98, PBLUC_R_SQUARED 0.233, read-out: LUCIFERASE INFECTION ASSAY - IC50): 6.2 µM
CSc1sc(C(=O)NC(=O)Nc2cccc(C(F)(F)F)c2)cc1C#N	> 8.56 µM	IC50 (FFLUC_HILL_SLOPE 12.6, FFLUC_R_SQUARED 0.0423, read-out: LUCIFERASE INFECTION ASSAY - IC50): > 8.56 µM
Clc1ccc(/N=C/c2c(Sc3ccc(Cl)cc3)nc3sccn23)cc1	5.29 µM	IC50 (FFLUC_HILL_SLOPE 12.3, FFLUC_R_SQUARED 0.518, HEPG2TOX_HILL_SLOPE 2.77, HEPG2TOX_R_SQUARED 0.964, PBLUC_HILL_SLOPE 5.31, PBLUC_R_SQUARED 0.509, read-out: LUCIFERASE INFECTION ASSAY - IC50): 3.5 µM
Cc1c(Sc2ccccc2[N+](=O)[O-])c2ccccn2c1C(=O)c1ccc(Br)cc1	> 10 µM	IC50 (FFLUC_HILL_SLOPE 12.7, FFLUC_R_SQUARED 0.226, PBLUC_HILL_SLOPE 11.1, PBLUC_R_SQUARED 0.312, read-out: LUCIFERASE INFECTION ASSAY - IC50): 9.73 µM
Cc1c(C(=O)OC(C)C(=O)Nc2ccc(F)cc2Cl)sc2nc3n(c(=O)c12)CCC3 (stereo unspecified)	> 10 µM	IC50 (FFLUC_HILL_SLOPE 12.5, FFLUC_R_SQUARED 0.0754, PBLUC_HILL_SLOPE 2.35, PBLUC_R_SQUARED 0.872, read-out: LUCIFERASE INFECTION ASSAY - IC50): 5.4 µM
CC(CCc1ccccc1)NC(=O)Cn1c(=O)c(=O)n(Cc2ccccc2)c2ccc(Cl)cc21 (stereo unspecified)	> 10 µM	IC50 (FFLUC_HILL_SLOPE 12.6, FFLUC_R_SQUARED 0.716, read-out: LUCIFERASE INFECTION ASSAY - IC50): > 10 µM
OCc1ccc(-c2cnc3ccc(-c4cccc(Cl)c4)nn23)cc1	3.31 µM	IC50 (FFLUC_HILL_SLOPE 12.3, FFLUC_R_SQUARED 0.916, HEPG2TOX_HILL_SLOPE 9.11, HEPG2TOX_R_SQUARED 0.904, PBLUC_HILL_SLOPE 1.55, PBLUC_R_SQUARED 0.705, read-out: LUCIFERASE INFECTION ASSAY - IC50): 0.798 µM
O=C(NNC(=S)Nc1ccc(Cl)c(Cl)c1)c1cccn1-c1ccc(F)cc1	5.78 µM	IC50 (FFLUC_HILL_SLOPE 12.7, FFLUC_R_SQUARED 0.0579, HEPG2TOX_HILL_SLOPE 1.8, HEPG2TOX_R_SQUARED 0.871, PBLUC_HILL_SLOPE 2.85, PBLUC_R_SQUARED 0.299, read-out: LUCIFERASE INFECTION ASSAY - IC50): 2.67 µM
O=C(Nc1nc2ccccn2c1C(=O)NC1CCCCC1)c1ccccc1	3.28 µM	IC50 (FFLUC_HILL_SLOPE 12.3, FFLUC_R_SQUARED 0.522, HEPG2TOX_HILL_SLOPE 1.9, HEPG2TOX_R_SQUARED 0.962, PBLUC_HILL_SLOPE 15.5, PBLUC_R_SQUARED 0.368, read-out: LUCIFERASE INFECTION ASSAY - IC50): 2.84 µM
CCSc1ncc(-c2nnnn2-c2ccccc2)c(-c2ccccc2)n1	> 9.16 µM	IC50 (FFLUC_HILL_SLOPE 12.6, FFLUC_R_SQUARED 0.17, read-out: LUCIFERASE INFECTION ASSAY - IC50): > 9.16 µM
Cc1ccc(C2(c3ccccc3)NC(=O)N(CC(=O)c3cccs3)C2=O)cc1C (stereo unspecified)	6.65 µM	IC50 (FFLUC_HILL_SLOPE 12.5, FFLUC_R_SQUARED 0.056, HEPG2TOX_HILL_SLOPE 0.321, HEPG2TOX_R_SQUARED 0.0152, PBLUC_HILL_SLOPE 3.37, 16.8, PBLUC_R_SQUARED 0.316, 0.669, read-out: LUCIFERASE INFECTION ASSAY - IC50): 4.11 µM
N#Cc1c(-c2ccccc2)c(-c2ccccc2)n(C2CCCCC2)c1NC(=O)CCN1C(=O)c2ccccc2C1=O	> 10 µM	IC50 (FFLUC_HILL_SLOPE 12.4, FFLUC_R_SQUARED 0.654, read-out: LUCIFERASE INFECTION ASSAY - IC50): > 10 µM
Oc1c(C(c2ccc(C(F)(F)F)cc2)N2CCCC2)cc(Cl)c2cccnc12 (stereo unspecified)	2.26 µM	IC50 (FFLUC_HILL_SLOPE 12.3, FFLUC_R_SQUARED 0.824, HEPG2TOX_HILL_SLOPE 1.2, HEPG2TOX_R_SQUARED 0.387, PBLUC_HILL_SLOPE 2.74, PBLUC_R_SQUARED 0.879, read-out: LUCIFERASE INFECTION ASSAY - IC50): 1.01 µM
